Test results reported in the METLIN SMRT retention time set (Domingo-Almenara et al. 2019).

Test: gradient 5% acetonitrile 3 min, to 50% in 2 min, to 85% in 15 min, held 3 min, 100 µL/min
Conditions: column: Zorbax Extend-C18 2.1 x 50 mm; eluents: water / acetonitrile, 0.1% formic acid
Summary of the method: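 Retention times of pure standards were taken from adduct peaks that were selected by computer and manually inspected. Over 3 months, mixtures of ~100 molecules were run by HPLC–quadrupole time-of-flight mass spectrometry in positive and negative ionization mode. The Zorbax Extend-C18 column (2.1 × 50 mm, 1.8 μm) ran at 100 μL/min in water and acetonitrile, each containing 0.1% formic acid, with 40 μL dead volume and 900 μL dwell volume.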

Row | SMILES | RP-LC retention time [s]
1 | COc1ccc(CCNC(=O)C2CCN(S(C)(=O)=O)c3ccccc3O2)cc1 (centres undefined) | 828
2 | Cc1cc(C(=O)NCc2ccc(F)cc2)nc2cc(-c3cccs3)nn12 | 1090
3 | CCOc1ccc(-c2cc3c(=O)n(Cc4nc(-c5ccc(C)cc5)no4)ncn3n2)cc1 | 784
4 | Cc1csc(COc2ccc(C(=O)NC(C)CCc3ccccc3)cc2)n1 (centres undefined) | 595
5 | N#Cc1cccc(C(=O)NC2CCN(c3ccc(F)cc3)C2=O)c1 (centres undefined) | 768
6 | CCn1nccc1C(=O)N1CCCC1c1ccc(C)cc1 (centres undefined) | 890
7 | COCCCN1C(=O)CSc2c(c3ccccc3n2C)C1C(=O)NCCCOC(C)C (centres undefined) | 825
8 | COc1ccc(CC(=O)NC(C(=O)Nc2nc3ccccc3[nH]2)C(C)C)c(Cl)c1 (centres undefined) | 744
9 | Cc1cccc(OCC(=O)Nc2ccc3c(c2)Sc2ncccc2C(=O)N3C)c1 | 856
10 | CCCn1c(=O)c(C)nc2cc(-c3noc(-c4ccccc4F)n3)ccc21 | 1130
11 | COc1ccc(NC(=O)N2c3ccccc3NC3=C(C(=O)CCC3)C2c2ccco2)c(OC)c1 (centres undefined) | 816
12 | COc1ccc(CNC(=O)C2CCN(S(=O)(=O)c3cc(-c4noc(C)n4)cs3)CC2)cc1 | 831
13 | Cn1nc(C(=O)NCC2(C)CCOCC2)c2ccccc21 | 763
14 | Cc1ccc(CC(=O)Nc2ccc3nc(N4CCN(CC(=O)N(C)C)CC4)cc(C(=O)O)c3c2)cc1 | 604
15 | CC(=O)NC(C)c1nc(-c2ccccc2Cl)no1 (centres undefined) | 687
16 | CCOc1cc(C(=O)Nc2c(-c3ccc(OC)cc3)nc3cc(C)ccn23)cc(OCC)c1OCC | 803
17 | COCCOC1CN(C2CCN(C(=O)c3ccc(C)s3)CC2)C12CCCCC2 (centres undefined) | 656
18 | O=C(Cn1c(=O)c2cc(-c3cccs3)nn2c2ncccc21)Nc1ccc(Cl)cc1 | 932
19 | CC(C)NC(=O)N1CCCC1c1noc(COc2ccc(F)cc2)n1 (centres undefined) | 799
20 | CCOc1ccc(-c2cc3n(n2)CCCN(C(C)=O)C3)cc1 | 637
21 | COc1ccc(-c2noc(C3CCCN3C(=O)Nc3ccc4c(c3)OCO4)n2)cc1 (centres undefined) | 884
22 | Cc1cccc(-c2nnc(-c3cc(S(=O)(=O)N(C)C)ccc3F)o2)c1 | 994
23 | Cn1nc2n(c1=O)CCN(Cc1ccc(C(C)(C)C)cc1)C2 | 707
24 | CCc1nc2onc(C)c2c(=O)n1CC(=O)NCCCc1ccccc1 | 844
25 | O=C(c1ccc(OCC2CCCN(C(=O)C3CCCC3)C2)cc1)N1CCCC1 (centres undefined) | 846

Row | SMILES | RP-LC retention time [s]
26 | Cc1ccnc(C(=O)Nc2cccc(Cl)c2Cl)n1 | 866
27 | Cc1ccn2c(Nc3ccccc3C)c(-c3ccccc3)nc2c1 | 745
28 | CN1C(=O)c2cccn2CC1CNC(=O)c1n[nH]c(=O)c2ccccc12 (centres undefined) | 764
29 | Cc1ccc(S(=O)(=O)N(C)c2ccc(C(=O)N3C(C)CCCC3C)cc2)cc1 (centres undefined) | 961
30 | Cc1cccc(-c2nc(CNC(=O)CCC(F)(F)F)no2)c1 | 870
31 | Cc1noc(C2CN(C(=O)NC3CCCC3)CC23CCOCC3)n1 (centres undefined) | 633
32 | Cc1nc(-c2csc(S(=O)(=O)N3CCCC(C(=O)N4CCC5(CC4)OCCO5)C3)c2)no1 (centres undefined) | 798
33 | COc1ccc(-c2noc(C3CC(=O)N(c4ccccc4)C3)n2)cc1OC (centres undefined) | 964
34 | CCCn1ccc2sc(C)c(C(=O)NCCN3CCCCC3CC)c2c1=O (centres undefined) | 673
35 | Cc1ccc(NC(=O)N2CC(c3nc(CCOCC4CCCC4)no3)C2)cc1C | 1060
36 | CC1CCN(S(=O)(=O)c2ccc(-c3nnc(C(=O)NCCN4CCCC4)o3)cc2)CC1 | 686
37 | COc1ccc2c(c1)C1CC(C)(NC(=O)C1C(=O)c1ccccc1)O2 (centres undefined) | 758
38 | Cc1nn(C)cc1CN(C)C(=O)c1ccc(-c2ccccc2)cc1 | 738
39 | CCOC(=O)CNC(=O)NCc1cccn1Cc1cccc(F)c1 | 810
40 | Cc1ccccc1NS(=O)(=O)c1ccc2c(c1)C(=O)N(C)c1ncccc1O2 | 892
41 | O=C1CCc2cc(S(=O)(=O)Nc3ccc(F)c(Cl)c3)cc3c2N1CCC3 | 812
42 | CCn1ccc2c(cc(C(=O)Nc3ccc(F)cc3C)n2C)c1=O | 726
43 | CC(C)N1C(=O)C2(CCCCC2)C1C(=O)N1CCCCC1 (centres undefined) | 722
44 | O=C(Nc1cc(-c2cccnc2)no1)c1ccc2c(c1)OCO2 | 710
45 | CC(C)c1nc2c(N)cccn2n1 | 613
46 | O=C(CN1CCN(C(=O)Nc2ccc(Cl)cc2)CC1=O)N1CCN(C2CCCCC2)CC1 | 624
47 | CC1=NS(=O)(=O)N(Cc2ccccc2)C=C1C(=O)OCc1noc(-c2ccc(C)c(C)c2)n1 | 1220
48 | CCCn1cc(C(=O)Nc2cccc(OC)c2)c(=O)c2ccc(C)nc21 | 1130
49 | O=C(/C=C/c1cccnc1)c1ccccc1O | 817

Next, values leading:

Row | RP-LC retention time [s] | SMILES
50 | 632 | CC1=C(c2ccccc2)S(=O)(=O)N=C1N1CCN(c2ccccn2)CC1
51 | 728 | O=C(CC1CCN(C(=O)c2ccc3oc(-c4ccccc4)nc3c2)CC1)NC1CC1
52 | 891 | O=C(Nc1cnn(-c2ncc(N3CCCCC3)cn2)c1)Nc1ccccc1C(F)(F)F
53 | 973 | Cc1ccc(C)c(NC(=O)c2cn(-c3ncccc3-c3nc(C4CC4)no3)cn2)c1
54 | 832 | O=C([C@@H]1C[C@H](Oc2ccccc2)CN1C(=O)CC1CCCC1)N1CCCC1
55 | 786 | COc1cccc(NC(=O)C2CCCN(C(=O)C3Sc4ccccc4NC3=O)C2)c1 (centres undefined)
56 | 668 | O=C(NCc1cccs1)C1CCCN(c2nnc3ccc(C(F)(F)F)cn23)C1 (centres undefined)
57 | 666 | CCC1CCCCN1C(=O)c1cnc2nc(C)ccc2c1Nc1ccc2c(c1)OCCO2 (centres undefined)
58 | 944 | O=C(Cn1cccc1-c1nnc(C2CC2)o1)N1CCN(c2cccc(Cl)c2)CC1
59 | 615 | O=C(Cn1ncc2c(N3CCN(c4ccccn4)CC3)ncnc21)Nc1cc(F)ccc1F
60 | 692 | O=C(Nc1cccn2c(C3CCC3)nnc12)c1cnccn1
61 | 1030 | Cc1ccccc1CNC(=O)C1(C)CCN(S(=O)(=O)c2ccc(Br)cc2)CC1
62 | 562 | O=C(NCCN1CCCCC1)C1CCCN(c2cnc3nccnc3c2)C1 (centres undefined)
63 | 584 | O=C(NC1CCCCC1)C1CCc2ncc(-c3ccsc3)n2C1 (centres undefined)
64 | 892 | Cc1cccc(CN2N=C(C(=O)N3CCCC3)S(=O)(=O)c3ccccc32)c1
65 | 757 | Cn1nc(CNC(=O)c2ccccc2Br)c2ccccc21
66 | 814 | O=C(Nc1cnn(-c2ncc(N3CCCCC3)cn2)c1)c1ccccn1
67 | 678 | N#Cc1cccc(-c2nc(-c3ccc4c(c3)nnn4CCN3CCCCC3)no2)c1
68 | 1110 | Cc1sc(-c2cc(C(F)(F)F)on2)cc1S(=O)(=O)NCc1ccccc1
69 | 1110 | O=C(Cn1c(=O)cc(-c2nc(C3CC3)no2)c2ccccc21)NCCC1=CCCCC1

Row | RP-LC retention time [s] | SMILES
70 | 907 | O=C1CC2(CCN(S(=O)(=O)c3ccc([N+](=O)[O-])cc3)CC2)Oc2ccccc21
71 | 581 | CC(C)CC(=O)Nc1ccc(-n2cnc(C(=O)N3CCN(C(C)C)CC3)c2)nc1
72 | 1030 | O=C(Nc1ccc(Br)c(F)c1)c1cnc(-c2ccccc2)nc1-c1ccncc1
73 | 1260 | CC1CCCCC1NC(=O)c1sc2ncccc2c1-n1cccc1 (centres undefined)
74 | 1240 | CCOC(=O)c1cnc2cc(Cl)c(OC)cc2c1N1CCN(c2cccc(Cl)c2)CC1
75 | 956 | O=C(O)c1cnc(N2CCCCC2)nc1-c1ccccc1
76 | 821 | CC1CCCN(c2ccn3c(=O)n(CC(=O)NCc4ccc(Cl)cc4)nc3n2)C1 (centres undefined)
77 | 937 | Cc1ccc(-c2noc(C3CC3)n2)cc1S(=O)(=O)N1CCC(C(=O)Nc2nccs2)CC1
78 | 899 | O=C(CN1C(=O)CC(c2ccco2)Sc2ccccc21)Nc1ccccc1C(F)(F)F (centres undefined)
79 | 956 | O=C(c1nnc(-c2ccc(S(=O)(=O)N3CCCCC3)cc2)o1)N1CCCCC1
80 | 942 | O=C(O)Cc1sc(Nc2ccccc2Cl)nc1-c1ccccc1
81 | 721 | O=C(CN1C(=O)COc2ccc(C(=O)N3CCCC3)cc21)N1CCc2ccccc2C1
82 | 898 | O=C(c1cnn(-c2ccccc2)n1)N1CCN(C(=O)C2CC2c2ccc(F)cc2)CC1 (centres undefined)
83 | 612 | CCn1c(C(=O)NCCCN2CCOCC2)cc2c(=O)oc3ccccc3c21
84 | 667 | O=C(CSc1nc2ccsc2c(=O)n1-c1ccc(F)cc1)Nc1ncn[nH]1
85 | 663 | Cc1ccn2cc(-c3ccc(NC(=O)COc4ccccc4)cc3)nc2n1
86 | 718 | O=C(NCc1ccco1)C1CCN(c2nnc(-c3ccccc3)o2)CC1
87 | 696 | CC(C(=O)N1CCN(c2ccccn2)CC1)n1c(=O)c(C(F)(F)F)nc2ccccc21 (centres undefined)
88 | 644 | Cc1ccc(-c2nnc(N3CCC(C(=O)N4CCN(C5CCCCC5)CC4)CC3)o2)cc1
89 | 700 | COc1ccccc1NC(=O)C1CCN(c2cc(N3CCCCC3)ncn2)CC1
